Reference: patent EP4678638A1, “NEW E3 UBIQUITIN LIGASE LIGAND, PROTEIN DEGRADATION AGENT AND USE THEREOF” (priority 2023, dated 2024)
Where two headings read alike, the source gives them in different places.

How the values were obtained:
Type in all cases: cell-based, Human
PC-9 = assay: CCK-8 proliferation, PC-9; details: read-out: Inhibitory activity (IC50) on tumor cell proliferation, PC-9
Procedure, shortened: (§1)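 Cells seeded, then after 24 h treated with 10 concentrations (top 10 µM, 5-fold serial dilution) for a line-specific time at 37°C, 5% CO2. Viability read by CCK-8; IC50 fitted from growth-inhibition curves.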

H1975 = assay: CCK-8 proliferation, NCI-H1975 (H1975); details: read-out: Inhibitory activity (IC50) on tumor cell proliferation, H1975
Procedure, shortened: as §1

[1] = test system: H1975-1µM Osimertinib cells; assay: CCK-8 proliferation, osimertinib-resistant H1975 cells
Description: (§2) The tumor cells used herein were cultured in a cell culture medium listed in table A1 at 37°C in an incubator with 5% CO2. Prior to experimentation, all cell lines used were correctly identified by STR profiling, and tested negative for mycoplasma contamination using a mycoplasma detection kit through routine screenings. Table A1. Tumor cells and cell culture medium used in the present disclosure
(§3) IC50 values of the compounds of the present disclosure (including the compounds in Table 1, and compounds of examples) were measured using the Meilun Cell Counting Kit-8 kit from Dalian Meilun Biotech Co., Ltd. Assay details are as follows: tumor cells were seeded in a 96-well plate at a density listed in Table A2. After 24h, 100 µL of the inoculated cells were treated with 0.5µL of the compounds of the present disclosure (including the compounds in Tables 1 and 2, and compounds of examples) at 10 different successively decreasing concentrations (starting at the highest concentration of 10µM; 5-fold serial dilutions). After the cells were treated with the compounds of the present disclosure for a period of time, the cell viability detection reagent was added to the culture medium for cell viability assessment according to the instructions provided with the CCK-8 kit. […] The growth inhibition of the compounds of the present disclosure on cells was plotted by Prism Graphpad software, and the IC50 values of the compounds of the present disclosure were calculated therefrom. […] Seeding protocol and treatment time for tumor cells

HCC827 = assay: CCK-8 proliferation, HCC827; details: read-out: Inhibitory activity (IC50) on tumor cell proliferation, HCC827
Description: as §2, §3

EGFR = assay: Western blot degradation of EGFR (H1975 Cell); details: Table D2
Procedure, shortened: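 Quantification by ImageJ densitometry of Western blot bands: DC50 is the fitted concentration halving band intensity relative to DMSO. Percent remaining uses internal-control normalization, and degradation rate is its complement.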

[2] = Homo sapiens, PC-9, CCK-8, 96 hours
[3] = Homo sapiens, NCI-H1975, CCK-8, 96 hours
[4] = Homo sapiens, NCI-H1975, CCK-8, osimertinib-resistant H1975 cells obtained by treating H1975 cells with 1 µM Osimertinib for 3 months, read-out: Inhibitory activity (IC50) on tumor cell proliferation, H1975-1µm Osimertinib
[5] = Homo sapiens, HCC827, CCK-8, 96 hours

IC50 (PC-9; [2]) [nM] | IC50 (H1975; [3]) [nM] | IC50 [1, 4] [nM] | IC50 (HCC827; [5]) [nM] | Compound | Degradation of substrate protein EGFR (substrate protein remaining %) (EGFR) | also measured
100 to 500 | 50 to 100 | 500 to 1000 | 100 to 500 | COc1cc(N2CCC(N(C)Cc3ccc(C4CCC(=O)NC4=O)cc3)CC2)c(C)cc1Nc1ncc(Br)c(Nc2ccc3nccnc3c2P(C)(C)=O)n1 (stereo not shown) [GT-03930, 3-(4-(((1-(4-((5-bromo-4-((5-(dimethylphosphoryl)quinoxalin-6-yl)amino)pyrimidin-2-yl)amino)-5-methoxy-2-methylphenyl)piperidin-4-yl)(methyl)amino)methyl)phenyl)piperidine-2,6-dione] |  | 
100 to 500 |  | 500 to 1000 |  | COc1cc(N2CCC(N(C)Cc3ccc(N4CCC(=O)NC4=O)cc3)CC2)c(C)cc1Nc1ncc(Br)c(Nc2ccc3nccnc3c2P(C)(C)=O)n1 [GT-05951, 1-(4-(((1-(4-((5-bromo-4-((5-(dimethylphosphoryl)quinoxalin-6-yl)amino)pyrimidin-2-yl)amino)-5-methoxy-2-methylphenyl)piperidin-4-yl)(methyl)amino)methyl)phenyl)dihydropyrimidine-2,4(1H,3H)-dione] | A (A is defined as 0% ≤ substrate protein remaining % ≤ 80%) | 
100 to 500 |  | 500 to 1000 | 500 to 1000 | COc1cc(N2CCC(N(C)Cc3ccc(N4CCC(=O)NC4=O)cn3)CC2)c(C)cc1Nc1ncc(Br)c(Nc2ccc3nccnc3c2P(C)(C)=O)n1 [GT-05952, 1-(6-(((1-(4-((5-bromo-4-((5-(dimethylphosphoryl)quinoxalin-6-yl)amino)pyrimidin-2-yl)amino)-5-methoxy-2-methylphenyl)piperidin-4-yl)(methyl)amino)methyl)pyridin-3-yl)dihydropyrimidine-2,4(1H,3H)-dione] | A (A is defined as 0% ≤ substrate protein remaining % ≤ 80%) | 
50 to 100 |  | 100 to 500 | 100 to 500 | CC(C)n1nc(N2CCC(N(C)Cc3ccc(C4CCC(=O)NC4=O)cc3)CC2)c2cnc(Nc3ccnc(-c4cnn(S(=O)(=O)C5CC5)c4)n3)cc21 (stereo not shown) [GT-06020, 3-(4-(((1-(6-((2-(1-(cyclopropylsulfonyl)-1H-pyrazol-4-yl)pyrimidin-4-yl)amino)-1-isopropyl-1H-pyrazolo[4,3-c]pyridin-3-yl)piperidin-4-yl)(methyl)amino)methyl)phenyl)piperidine-2,6-dione] |  | 

More lines, now with the values behind:

Compound | IC50 (PC-9; [2]) [nM] | IC50 (H1975; [3]) [nM] | IC50 [1, 4] [nM] | IC50 (HCC827; [5]) [nM] | Degradation of substrate protein EGFR (substrate protein remaining %) (EGFR) | also measured
CN(Cc1cccc(NC2CCC(=O)NC2=O)c1)C1CCN(c2ccc(-c3cc(F)c4c(c3)C(=O)N(C(C(=O)Nc3nccs3)c3ncn5c3CCC5)C4)cc2)CC1 (stereo not shown) [GT-05284, 2-(6,7-dihydro-5H-pyrrolo[1,2-c]imidazol-1-yl)-2-(6-(4-(4-((3-((2,6-dioxopiperidin-3-yl)amino)benzyl)(methyl)amino)piperidin-1-yl)phenyl)-4-fluoro-1-oxoisoindolin-2-yl)-N-(thiazol-2-yl)acetamide] |  | 1 to 10 | 500 to 1000 |  | A (A is defined as 0% ≤ substrate protein remaining % ≤ 80%) | 
O=C1CCN(c2ccc(CN3CCN(C4CCN(c5ccc(NC6=NC=C7N=C(Nc8ccccc8)N(C8CCCC8)C7N6)cc5)CC4)CC3)cn2)C(=O)N1 (stereo not shown) [GT-05942, 1-(5-((4-(1-(4-((9-cyclopentyl-8-(phenylamino)-4,9-dihydro-3H-purin-2-yl)amino)phenyl)piperidin-4-yl)piperazin-1-yl)methyl)pyridin-2-yl)dihydropyrimidine-2,4(1H,3H)-dione] | 1 to 10 |  | 500 to 1000 | 10 to 50 | A (A is defined as 0% ≤ substrate protein remaining % ≤ 80%) | 
CC(C)n1nc(N2CCC(N3CCN(Cc4cccc(N5CCC(=O)NC5=O)c4)CC3)CC2)c2cnc(Nc3ccnc(-c4cnn(S(=O)(=O)C5CC5)c4)n3)cc21 [GT-06080, 1-(3-((4-(1-(6-((2-(1-(cyclopropylsulfonyl)-1H-pyrazol-4-yl)pyrimidin-4-yl)amino)-1-isopropyl-1H-pyrazolo[4,3-c]pyridin-3-yl)piperidin-4-yl)piperazin-1-yl)methyl)phenyl)dihydropyr imidine-2,4(1H,3H)-dione] | 500 to 1000 |  | 500 to 1000 |  |  | 
CC(C)n1nc(N2CCC(N3CCN(Cc4ccc(N5CCC(=O)NC5=O)nc4)CC3)CC2)c2cnc(Nc3ccnc(-c4cnn(S(=O)(=O)C5CC5)c4)n3)cc21 [GT-06082, 1-(5-((4-(1-(6-((2-(1-(cyclopropylsulfonyl)-1H-pyrazol-4-yl)pyrimidin-4-yl)amino)-1-isopropyl-1H-pyrazolo[4,3-c]pyridin-3-yl)piperidin-4-yl)piperazin-1-yl)methyl)pyridin-2-yl)dihydropyrimidine-2,4(1H,3H)-dione] | 100 to 500 | 100 to 500 | 10 to 50 |  |  | 
O=C1CCN(c2ccc(CN3C[C@H]4C[C@@H]3CN4c3ccc(-c4cc(F)c5c(c4)C(=O)N(C(C(=O)Nc4nccs4)c4ncn6c4CCC6)C5)cc3)nc2)C(=O)N1 (stereo partly drawn) [GT-06190, 2-(6,7-dihydro-5H-pyrrolo[1,2-c]imidazol-1-yl)-2-(6-(4-((1R,4R)-5-((5-(2,4-dioxotetrahydropyrimidin-1(2H)-yl)pyridin-2-yl)methyl)-2,5-diazabicyclo[2.2.1]heptan-2-yl)phenyl)-4-fluoro-1-oxoisoindolin-2-yl)-N-(thiazol-2-yl)acetamide] |  | 1 to 10 | 100 to 500 |  | A (A is defined as 0% ≤ substrate protein remaining % ≤ 80%) | 
O=C1CCC(Nc2cccc(CN3CCN(C4CCN(c5ccc(-c6cc(F)c7c(c6)C(=O)N(C(C(=O)Nc6nccs6)c6ncn8c6CCC8)C7)cc5)CC4)CC3)c2)C(=O)N1 (stereo not shown) [GT-06247, 2-(6,7-dihydro-5H-pyrrolo[1,2-c]imidazol-1-yl)-2-(6-(4-(4-(4-(3-((2,6-dioxopiperidin-3-yl)amino)benzyl)piperazin-1-yl)piperidin-1-yl)phenyl)-4-fluoro-1-oxoisoindolin-2-yl)-N-(thiazol-2-yl)acetamide] |  | 10 to 50 | 50 to 100 |  | A (A is defined as 0% ≤ substrate protein remaining % ≤ 80%) | 
O=C1CCN(c2ccc(CN3CCN(C4CCN(c5ccc(-c6cc(F)c7c(c6)C(=O)N(C(C(=O)Nc6nccs6)c6ncn8c6CCC8)C7)cc5)CC4(F)F)CC3)cn2)C(=O)N1 (stereo not shown) [GT-06320, 2-(6,7-dihydro-5H-pyrrolo[1,2-c]imidazol-1-yl)-2-(6-(4-(4-(4-((6-(2,4-dioxotetrahydropyrimidin-1(2H)-yl)pyridin-3-yl)methyl)piperazin-1-yl)-3,3-difluoropiperidin-1-yl)phenyl)-4-fluoro-1-oxoisoindolin-2-yl)-N-(thiazol-2-yl)acetamide] |  | 1 to 10 | 500 to 1000 |  | A (A is defined as 0% ≤ substrate protein remaining % ≤ 80%) | 
COc1cc(N2CCC(N3CCN(CCC#Cc4cccc5c4CN(C4CCC(=O)NC4=O)C5=O)CC3)CC2)ccc1Nc1ncc(Cl)c(Nc2ccccc2P(C)(C)=O)n1 (stereo not shown) [HJM-561, reference compound] |  |  |  |  |  | IC50 (PC-9; CCK-8, 96 hours): 100 to 500 nM; IC50 (H1975; CCK-8, 96 hours): 50 to 100 nM; IC50 ([1]; CCK-8, osimertinib-resistant H1975 cells obtained by treating H1975 cells with 1 µM Osimertinib for 3 months, read-out: Inhibitory activity (IC50) on tumor cell proliferation, H1975-1µm Osimertinib): 1000 to 5000 nM; IC50 (HCC827; CCK-8, 96 hours): 500 to 1000 nM
C=CC(=O)Nc1cc(Nc2nccc(-c3cn(C)c4ccccc34)n2)c(OC)cc1N(C)CCN(C)C [osimertinib, reference compound] |  |  |  |  |  | IC50 (PC-9; Homo sapiens, PC-9, 96 h): 10 to 50 nM; IC50 (H1975; Homo sapiens, NCI-H1975, 96 h): 100 to 500 nM; IC50 ([1]; Homo sapiens, NCI-H1975, read-out: Inhibitory activity (IC50) on tumor cell proliferation, H1975-1µm Osimertinib): > 10000 nM; IC50 (HCC827; Homo sapiens, HCC827, 96 h): 10 to 50 nM
